Common to all, as to assay type: functional, cell-based
Test [1] in a line: Cytotoxicity against human BGC cells by MTT assay.
The subject of another test is KB. The test can be described thus: Cytotoxicity against human KB cells by MTT assay. For orientation: Tetrazolium dyes change colour on reduction, which living cells bring about.
The next test has as its system 786-0. The test can be described thus: Cytotoxicity against human 786-0 cells by MTT assay.
Another test concerns A-375. The test can be described thus: Cytotoxicity against human A375 cells by MTT assay.
Another test has as its system 769-P. The test can be described thus: Cytotoxicity against human 769-P cells by MTT assay.

The IC50 is the midpoint of a concentration-inhibition curve. Read a low IC50 as higher potency.

Structures are written as SMILES.

`COC(=O)[C@H](C)NC(=O)c1cc2c3ccccc3n(CCCc3ccccc3)c2cn1`: the 50% inhibitory concentration (IC50) in test [1] was 148 µM; with KB, > 200 µM; in the test with 786-0, > 200 µM; with A-375, > 200 µM; with 769-P, > 200 µM.

Take `CCCCn1c2ccccc2c2cc(C(=O)N[C@@H](CCSC)C(=O)OCC)ncc21`: the IC50 (in test [1]; in the test on KB; with 786-0; in the test with A-375; in the test with 769-P) was > 200 µM in each case.

Consider `CCOC(=O)[C@H](CCSC)NC(=O)c1cc2c3ccccc3n(CCCc3ccccc3)c2cn1`, for which the IC50 in test [1] is > 200 µM; with KB, 176 µM; in the test on 786-0, > 200 µM; in the test on A-375, > 200 µM; with 769-P it was > 200 µM.

For the compound `CCOC(=O)[C@H](Cc1ccccc1)NC(=O)c1cc2c3ccccc3n(CCCc3ccccc3)c2cn1`, the IC50 in test [1] is > 200 µM; in the test with KB it was 89.2 µM; in the test with 786-0, > 200 µM; in the test on A-375, > 200 µM; in the test with 769-P, 187 µM.

As for `CCCCn1c2ccccc2c2cc(C(=O)N[C@@H](C)C(=O)OC)ncc21`, the half-inhibitory concentration (IC50) in test [1] was > 200 µM; in the test on KB, > 200 µM; with 786-0, > 200 µM; in the test on A-375, > 200 µM; in the test on 769-P it was 27.2 µM.

As to `CCCCn1c2ccccc2c2cc(C(=O)N[C@@H](Cc3ccccc3)C(=O)OCC)[n+](Cc3ccccc3)cc21`, the half-maximal inhibitory concentration (IC50) amounted to 21.4 µM in test [1]; 11.3 µM with KB; 15 µM in the test with 786-0; 41.7 µM in the test with A-375; 19.2 µM in the test with 769-P.

`CSCC[C@H](NC(=O)c1cc2c3ccccc3n(CCCc3ccccc3)c2cn1)C(=O)O`: the half-maximal inhibitory concentration (IC50) in test [1] stood at 136 µM; in the test on KB, 96.6 µM; in the test on 786-0 it was 70 µM; in the test on A-375, 58.9 µM; with 769-P it was 116 µM.

Consider `CCOC(=O)[C@H](Cc1ccccc1)NC(=O)c1cc2c3ccccc3n(Cc3ccccc3)c2c[n+]1Cc1ccccc1`, for which the IC50 was found to be 92.5 µM in test [1]; 51.4 µM in the test on KB; 69.4 µM in the test on 786-0; 25.8 µM in the test on A-375; 13.5 µM in the test with 769-P.

Turning to `CC(C)[C@H](NC(=O)c1cc2c3ccccc3n(CCCc3ccccc3)c2cn1)C(=O)O`, the IC50 came out at 139 µM in test [1]; 106 µM in the test on KB; 84.6 µM in the test with 786-0; 58 µM in the test on A-375; 78.3 µM in the test on 769-P.

Consider `CC(=O)O[C@H]1C(=O)[C@@]2(C)[C@H]([C@H](OC(=O)c3ccccc3)[C@]3(O)C[C@H](OC(=O)[C@H](O)[C@@H](NC(=O)c4ccccc4)c4ccccc4)C(C)=C1C3(C)C)[C@]1(OC(C)=O)CO[C@@H]1C[C@@H]2O` [PACLITAXEL], for which the IC50 in test [1] was 1.5 µM; with KB it was 0.08 µM; in the test on 786-0, < 0.08 µM; with A-375 it was 0.81 µM; in the test on 769-P, 7.1 µM.

On to `CCCCn1c2ccccc2c2cc(C(=O)N[C@H](C(=O)OCC)C(C)C)[n+](Cc3ccccc3)cc21`, for which the IC50 in test [1] turned out to be 44.2 µM; with KB it was 28.4 µM; in the test on 786-0, 14.4 µM; with A-375, 22.5 µM; with 769-P it was 13.7 µM.

Take `CCOC(=O)[C@@H](NC(=O)c1cc2c3ccccc3n(CCCc3ccccc3)c2cn1)C(C)C`: the IC50 (in test [1]; in the test on KB; with 786-0; in the test on A-375; with 769-P) was > 200 µM in each case.

For `O=C(N[C@@H](Cc1ccccc1)C(=O)O)c1cc2c3ccccc3n(CCCc3ccccc3)c2cn1`, the IC50 in test [1] amounted to 76.1 µM; in the test with KB it was 38.8 µM; in the test on 786-0, 52.7 µM; with A-375 it was 33.8 µM; in the test with 769-P it was 8 µM.

For the compound `CCCCn1c2ccccc2c2cc(C(=O)N[C@@H](CCSC)C(=O)O)ncc21`, the IC50 in test [1] was > 200 µM; in the test with KB, > 200 µM; with 786-0 it was > 200 µM; with A-375, > 200 µM; in the test with 769-P, 105 µM.

As for `CCCCn1c2ccccc2c2cc(C(=O)N[C@@H](Cc3ccccc3)C(=O)OCC)nc(C)c21`, the IC50 (in test [1]; in the test with KB; in the test on 786-0; in the test on A-375; in the test with 769-P) was > 200 µM each time.

Turning to `CCOC(=O)[C@H](CCSC)NC(=O)c1cc2c3ccccc3n(Cc3ccccc3)c2cn1`, the IC50 (in test [1]; in the test with KB; in the test on 786-0; in the test with A-375; with 769-P) was > 200 µM throughout.

As for `CCCCn1c2ccccc2c2cc(C(=O)N[C@@H](Cc3ccccc3)C(=O)OCC)ncc21`, the IC50 is > 200 µM in test [1]; 113 µM in the test on KB; > 200 µM in the test with 786-0; > 200 µM with A-375; 32.5 µM with 769-P.

Take `CCCCn1c2ccccc2c2cc(C(=O)N[C@@H](Cc3ccc(O)cc3)C(=O)O)ncc21`: the IC50 in test [1] is > 200 µM; in the test with KB, > 200 µM; in the test with 786-0, > 200 µM; in the test on A-375, 121 µM; with 769-P, > 200 µM.

Turning to `CCCCn1c2ccccc2c2cc(C(=O)N[C@@H](Cc3ccccc3)C(=O)OC)ncc21`, the IC50 (in test [1]; in the test on KB; with 786-0; in the test on A-375; with 769-P) was > 200 µM in each case.

Consider `CCCCn1c2ccccc2c2cc(C(=O)N[C@H](C(=O)OC)C(C)C)ncc21`, for which the IC50 (in test [1]; in the test on KB; in the test with 786-0; with A-375; in the test with 769-P) was > 200 µM in each case.

Regarding `CCCCn1c2ccccc2c2cc(C(=O)N[C@@H](CCSC)C(=O)OCC)nc(C)c21`, the 50% inhibitory concentration (IC50) (in test [1]; in the test with KB; in the test on 786-0; in the test on A-375; in the test with 769-P) was > 200 µM each time.

As to `CCOC(=O)[C@@H](NC(=O)c1cc2c3ccccc3n(CCCc3ccccc3)c2c[n+]1Cc1ccccc1)C(C)C`, the IC50 in test [1] worked out at 17.8 µM; in the test on KB, 12.5 µM; with 786-0, 4 µM; with A-375 it was 10.4 µM; with 769-P, 14 µM.

Turning to `CCCCn1c2ccccc2c2cc(C(=O)N[C@@H](CCSC)C(=O)OCC)[n+](Cc3ccccc3)cc21`, the half-inhibitory concentration (IC50) in test [1] amounted to 13.4 µM; in the test on KB, 10.8 µM; in the test on 786-0 it was 1.7 µM; with A-375, 8.2 µM; with 769-P, 7.5 µM.

Regarding `CSCC[C@H](NC(=O)c1cc2c3ccccc3n(Cc3ccccc3)c2cn1)C(=O)O`, the IC50 is > 200 µM in test [1]; 135 µM in the test on KB; > 200 µM in the test on 786-0; 156 µM with A-375; 145 µM with 769-P.

For the compound `CCOC(=O)[C@H](Cc1ccccc1)NC(=O)c1cc2c3ccccc3n(Cc3ccccc3)c2cn1`, the half-inhibitory concentration (IC50) (in test [1]; with KB; in the test with 786-0; in the test on A-375; in the test with 769-P) was > 200 µM in each case.

Take `C[C@H](NC(=O)c1cc2c3ccccc3n(CCCc3ccccc3)c2cn1)C(=O)O`: the concentration for half-maximal inhibition (IC50) amounted to 162 µM in test [1]; 179 µM in the test with KB; 78.3 µM in the test on 786-0; 96.3 µM with A-375; 120 µM with 769-P.

Take `CCOC(=O)[C@@H](NC(=O)c1cc2c3ccccc3n(Cc3ccccc3)c2c[n+]1Cc1ccccc1)C(C)C`: the IC50 turned out to be 21.9 µM in test [1]; 25.3 µM with KB; 10.8 µM in the test with 786-0; 15.8 µM in the test on A-375; 12.5 µM in the test on 769-P.

As to `CCCCn1c2ccccc2c2cc(C(=O)N[C@@H](Cc3ccccc3)C(=O)O)ncc21`, the 50% inhibitory concentration (IC50) was > 200 µM in test [1]; 155 µM in the test on KB; 191 µM in the test on 786-0; 160 µM with A-375; 114 µM in the test on 769-P.

Consider `CCCCn1c2ccccc2c2cc(C(=O)N[C@@H](Cc3ccc(O)cc3)C(=O)OC)ncc21`, for which the IC50 (in test [1]; with KB; in the test on 786-0; with A-375; in the test on 769-P) was > 200 µM each time.

As for `CCOC(=O)[C@H](CCSC)NC(=O)c1cc2c3ccccc3n(CCCc3ccccc3)c2c[n+]1Cc1ccccc1`, the IC50 in test [1] was 12 µM; with KB, 9.4 µM; in the test on 786-0 it was 10.1 µM; in the test with A-375, 7.3 µM; in the test on 769-P, 7.6 µM.

On to `CCOC(=O)[C@H](Cc1ccccc1)NC(=O)c1cc2c3ccccc3n(CCCc3ccccc3)c2c[n+]1Cc1ccccc1`, for which the concentration for half-maximal inhibition (IC50) in test [1] stood at 23.7 µM; in the test with KB, 18.2 µM; with 786-0, 23.4 µM; with A-375, 21.3 µM; with 769-P, 22.9 µM.

The record behind these values is ChEMBL document CHEMBL1157050, “Synthesis and cytotoxic evaluation of N2-benzylated quaternary beta-carboline amino acid ester conjugates” (Eur J Med Chem, 2010).
